{
  "source": "patent US7358376B2",
  "about": "“Substituted Thiophene compounds” (AstraZeneca AB, priority 2000, dated 2008)",
  "data": [
    {"smiles": "COc1ccc(-c2cc(NC(N)=O)c(C(N)=O)s2)cc1", "note": "[Example 4, 3-[(Aminocarbonyl)amino]-5-(4-methoxyphenyl)-2-thiophenecarboxamide]", "values": [
      {"measurement": "melting point", "value": "> 300", "unit": "°C"}
    ]},
    {"smiles": "NC(=O)Nc1cc(-c2ccccc2Cl)sc1C(N)=O", "note": "[Example 7, 3-[(Aminocarbonyl)amino]5-(2-chlorophenyl)-2-thiophenecarboxamide]", "values": [
      {"measurement": "melting point", "value": "> 300", "unit": "°C"}
    ]},
    {"smiles": "CN(C)CCOc1ccccc1-c1cc(NC(N)=O)c(C(N)=O)s1", "note": "[Example 9, 3-[(Aminocarbonyl)amino]-5-{2-[2-(dimethylamino)ethoxy]phenyl}-2-thiophenecarboxamide]", "values": [
      {"measurement": "melting point", "value": 180, "unit": "°C"}
    ]},
    {"smiles": "CN(C)CCOc1ccc(-c2cc(NC(N)=O)c(C(N)=O)s2)cc1", "note": "[Example 10, 3-[(Aminocarbonyl)amino]-5-{4-[2-(dimethylamino)ethoxy]phenyl}-2-thiophenecarboxamide]", "values": [
      {"measurement": "melting point", "value": "> 300", "unit": "°C"}
    ]}
  ]
}
